Laboratory results: article PMC10142505, “Synthesis, Evaluation of Enzyme Inhibition and Redox Properties of Potential Dual COX-2 and 5-LOX Inhibitors” (Pharmaceuticals, 2023)

How the values were obtained:
[1] = molecular target: T1, COX-2 human recombinant enzyme (Homo sapiens, UniProt P35354); assay: Fluorometric COX-2 inhibitor screening kit; type: biochemical; settings: IC50 ± standard error
T1 construct: purchased Abcam ab283401
T1 sequence (P35354 18-604): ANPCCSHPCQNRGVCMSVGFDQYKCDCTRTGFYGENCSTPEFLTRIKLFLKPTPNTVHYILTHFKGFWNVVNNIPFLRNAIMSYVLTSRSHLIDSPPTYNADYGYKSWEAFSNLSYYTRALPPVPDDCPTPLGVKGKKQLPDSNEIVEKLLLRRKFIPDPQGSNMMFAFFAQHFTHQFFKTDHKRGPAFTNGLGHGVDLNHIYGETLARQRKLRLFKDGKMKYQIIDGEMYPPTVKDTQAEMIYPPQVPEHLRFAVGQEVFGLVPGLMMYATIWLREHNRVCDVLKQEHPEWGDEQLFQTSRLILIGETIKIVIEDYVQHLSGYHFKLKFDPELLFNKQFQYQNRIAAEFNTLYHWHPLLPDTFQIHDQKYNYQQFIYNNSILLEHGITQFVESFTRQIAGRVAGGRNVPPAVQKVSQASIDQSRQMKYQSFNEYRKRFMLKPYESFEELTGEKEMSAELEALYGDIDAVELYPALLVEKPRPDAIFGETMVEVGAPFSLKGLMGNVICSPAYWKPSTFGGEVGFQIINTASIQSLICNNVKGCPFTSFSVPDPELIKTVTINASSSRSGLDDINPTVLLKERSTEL
Method: The COX-1 and COX-2 inhibitory activates of the synthesized compounds were tested using fluorometric COX-1 (Catalog Number: ab204698) and COX-2 (Catalog Number: ab283401) inhibitor screening kits (Abcam, United Kingdom). These assays are based on the fluorometric detection of Prostaglandin G2, generated by the COX enzyme. The experiment was conducted according to the manufacturer’s instructions. Each assay consists of a COX Assay Buffer, COX Probe (in DMSO), COX Cofactor (in DMSO), arachidonic acid and NaOH. The COX-1 inhibitor screening kit contains COX-1 ovine enzyme and COX-1 inhibitor SC560 (dissolved in DMSO), while the COX-2 inhibitor screening kit contains COX-2 human recombinant enzyme and COX-2 inhibitor Celecoxib (dissolved in DMSO). The tested compounds were dissolved in DMSO and further diluted five times with the COX Assay Buffer. The Inhibitor Control (IC) was prepared by adding 2 µL of COX-1/COX-2 inhibitor and 8 µL of COX Assay Buffer into assigned wells, while the Solvent Control (SC) was prepared by adding 2 µL of DMSO and 8 µL of COX Assay Buffer into assigned wells and the Sample (S) and Enzyme Control (EC) were prepared by adding 10 µL of diluted tested compounds or COX Assay Buffer into assigned wells. The Reaction Master Mix (COX Assay Buffer, COX Probe, Diluted COX Cofactor and COX-1/COX-2 Enzyme) was prepared according to instructions and 80 µL of the Reaction Master Mix was added into each well. Meanwhile, a diluted arachidonic acid/NaOH solution was prepared and 10 µL was added into each well using a multi-channel pipette to initiate all the reactions at the same time. […] The EC, SC, IC and tested compounds at all concentrations were analyzed in triplicates. Two points (T1 and T2) in the linear range of the plot were chosen and corresponding fluorescence values (RFU1 and RFU2) were obtained. The slope for all samples was calculated by dividing ΔRFU (RFU2-RFU1) by time Δt (T2−T1). The percentage of inhibition was calculated as follows: % Relative Inhibition=Slope of EC−Slope of S/Slope of EC∗100
(§1) Fluorescence measurements were performed on a BioTek Synergy LX multi-mode reader (Winooski, VT, USA).

[2] = molecular target: T2, 5-LOX enzyme (Homo sapiens, UniProt P09917); assay: Fluorometric 5-LOX inhibitor screening kit; type: biochemical; settings: IC50 ± standard error
T2 construct: purchased MyBioSource MBS846911
T2 sequence (P09917 1-674): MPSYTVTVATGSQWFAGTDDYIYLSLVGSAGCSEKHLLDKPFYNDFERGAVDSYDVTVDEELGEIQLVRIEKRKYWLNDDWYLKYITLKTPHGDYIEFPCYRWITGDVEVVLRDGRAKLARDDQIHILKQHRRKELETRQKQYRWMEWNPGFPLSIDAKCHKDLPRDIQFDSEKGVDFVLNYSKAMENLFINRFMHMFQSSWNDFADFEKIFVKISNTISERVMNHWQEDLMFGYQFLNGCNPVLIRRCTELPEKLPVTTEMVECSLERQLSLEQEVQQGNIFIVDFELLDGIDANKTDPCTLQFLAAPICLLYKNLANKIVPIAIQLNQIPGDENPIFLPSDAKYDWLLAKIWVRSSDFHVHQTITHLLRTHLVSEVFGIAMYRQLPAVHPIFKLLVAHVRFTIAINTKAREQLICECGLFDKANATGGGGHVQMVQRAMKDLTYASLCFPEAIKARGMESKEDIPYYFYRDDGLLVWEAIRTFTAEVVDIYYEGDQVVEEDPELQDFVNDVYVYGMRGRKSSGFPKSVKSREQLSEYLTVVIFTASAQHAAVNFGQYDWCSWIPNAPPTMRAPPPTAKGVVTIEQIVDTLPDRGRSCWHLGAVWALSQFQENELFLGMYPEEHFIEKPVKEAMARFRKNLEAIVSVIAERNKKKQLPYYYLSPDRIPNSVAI
Method: The 5-LOX inhibitory activates of synthesized compounds were tested using a fluorometric 5-LOX inhibitor screening kit (MyBioSource, San Diego, CA, USA; Catalog Number: MBS846911). This assay is based on the fluorometric detection of the intermediate generated by the 5-LOX enzyme. The experiment was conducted according to the manufacturer’s instructions. […] The tested compounds were dissolved in DMSO. Test solutions were added to corresponding wells at an amount of 2 µL out of the final 100 µL reaction volume per well. […] The volume was adjusted to 40 µL in each well by adding 38 µL of LOX Assay Buffer. The Reaction Mix (containing LOX Assay Buffer, LOX Probe and 5-LOX Enzyme) was prepared according to the instructions and 40 µL of the Reaction Mix was added into each well. The plate was incubated at room temperature for 10 min before adding the substrate diluted in the LOX Assay Buffer (1:2500 dilution factor). The final substrate solution was added at an amount of 20 µL into each well using a multi-channel pipette to initiate all the reactions at the same time. […] The EC, SC, IC and tested compounds at all concentrations were analyzed in triplicates. Two points (T1 and T2) in the linear range of the plot were chosen and corresponding fluorescence values (RFU1 and RFU2) were obtained. The slope for all samples was calculated by dividing ΔRFU (RFU2-RFU1) by the time Δt (T2−T1). The percentage of inhibition was calculated according to the equation mentioned in Section 3.3.1.
as §1

With `COc1ccc2c(c1)c(CNC(=O)NO)c(C)n2C(=O)c1ccc(Cl)cc1` [Compound 1, N’-hydroxy-N-[(1-(4-chlorobenzoyl)-5-methoxy-2-methyl-3-indolyl)methyl]urea] the IC50 [1] was 18.3 ± 2.17 µM and the IC50 [2] was 5.71 ± 0.15 µM.

In the case of `CC(NC(=O)NO)c1ccc(-c2ccccc2)c(F)c1` (centres unmarked) [Compound 2], the IC50 [1] is reported as 6.72 ± 0.79 µM and the IC50 [2] is reported as 1.62 ± 0.67 µM.

For `O=C(NO)NCc1ccccc1Nc1c(Cl)cccc1Cl` [Compound 3, N’-hydroxy-N-[(2-(2,6-dichloroanilino)phenyl)methyl]urea], the IC50 [1] was 5.26 ± 0.34 µM and the IC50 [2] was 1.73 ± 0.64 µM.

With `COC(=O)C(Cc1c[nH]cn1)NC(=O)c1cc(C(C)(C)C)c(O)c(C(C)(C)C)c1` (centres unmarked) [Compound 4, 2-(3,5-di-tert-butyl-4-hydroxy-benzoylamino)-3-(1H-imidazol-4-yl)-propionic acid methyl ester] the IC50 [1] was > 100 µM and the IC50 [2] was 8.1 ± 2.12 µM.

`COC(=O)CNC(=O)c1cc(C(C)(C)C)c(O)c(C(C)(C)C)c1` [Compound 5, (3,5-di-tert-butyl-4-hydroxy-benzoylamino)-acetic acid methyl ester] was tested, and the IC50 [1] was 10.6 ± 0.8 µM and the IC50 [2] was 9.3 ± 1.87 µM.

Compound `C=CCNC(=O)c1cc(C(C)(C)C)c(O)c(C(C)(C)C)c1` [Compound 6, N-allyl-3,5-di-tert-butyl-4-hydroxy-benzamide] has an IC50 [1] of 6.89 ± 0.83 µM and an IC50 [2] of 53.8 ± 11.9 µM.

`C#CCNC(=O)c1cc(C(C)(C)C)c(O)c(C(C)(C)C)c1` [Compound 7, 3,5-di-tert-butyl-4-hydroxy-N-prop-2-ynyl-benzamide] was tested, and the IC50 [1] was > 100 µM and the IC50 [2] was 12.6 ± 3.36 µM.

In the case of `CCOc1ccccc1NC(=O)N(C)C` [Compound 8, 3-(2-ethoxy-phenyl)-1,1-dimethyl-urea], the IC50 [1] is reported as > 100 µM and the IC50 [2] is reported as 14.5 ± 3.62 µM.

`CN(C)C(=O)Nc1ccccc1C(=O)O` [Compound 9, 2-(3,3-dimethyl-ureido)-benzoic acid] was tested, and the IC50 [1] was > 100 µM and the IC50 [2] was > 100 µM.

`CCOc1ccccc1NC(=O)Nc1ccc([N+](=O)[O-])cc1` [Compound 10, 1-(2-ethoxy-phenyl)-3-(4-nitro-phenyl)-urea] was tested, and the IC50 [1] was > 100 µM and the IC50 [2] was 13 ± 2.67 µM.

For `CC(=O)N(O)C(C)c1ccc(CC(C)C)cc1` (centres unmarked) [Compound 11], the IC50 [1] was 36.2 ± 3.08 µM and the IC50 [2] was 1.04 ± 0.22 µM.

For `COc1ccc2cc(C(C)N(O)C(C)=O)ccc2c1` (centres unmarked) [Compound 12, N-hydroxy-N-[1-(6-methoxy-naphthalen-2-yl)-ethyl]-acetamide], the IC50 [1] was 83.4 ± 4.37 µM and the IC50 [2] was 1.29 ± 0.1 µM.

`CC(C)(C)c1cc(C=C2SC(=S)N(N)C2=O)cc(C(C)(C)C)c1O` [Compound 13, 3-amino-5-(3,5-di-tert-butyl-4-hydroxy-benzylidene)-2-thioxo-thiazolidin-4-one] was tested, and the IC50 [1] was > 100 µM and the IC50 [2] was 13.6 ± 3.54 µM.
